Data: article PMC11171921, “NinaB and BCO Collaboratively Participate in the β-Carotene Catabolism in Crustaceans: A Case Study on Chinese Mitten Crab Eriocheir sinensis” (International Journal of Molecular Sciences, 2024)

Target: T1, EsNinaBl (Eriocheir sinensis, UniProt Z9UJ24V2T0)
T1 construct: full ORF in pGEX-4T (GST fusion vector), expressed in beta-carotene-producing E. coli BL(DE3) with pAC-BETAipi; primer-encoded N-terminus MSTDEGG, C-terminus FIPAEAQ
T1 sequence (Z9UJ24V2T0 1-523): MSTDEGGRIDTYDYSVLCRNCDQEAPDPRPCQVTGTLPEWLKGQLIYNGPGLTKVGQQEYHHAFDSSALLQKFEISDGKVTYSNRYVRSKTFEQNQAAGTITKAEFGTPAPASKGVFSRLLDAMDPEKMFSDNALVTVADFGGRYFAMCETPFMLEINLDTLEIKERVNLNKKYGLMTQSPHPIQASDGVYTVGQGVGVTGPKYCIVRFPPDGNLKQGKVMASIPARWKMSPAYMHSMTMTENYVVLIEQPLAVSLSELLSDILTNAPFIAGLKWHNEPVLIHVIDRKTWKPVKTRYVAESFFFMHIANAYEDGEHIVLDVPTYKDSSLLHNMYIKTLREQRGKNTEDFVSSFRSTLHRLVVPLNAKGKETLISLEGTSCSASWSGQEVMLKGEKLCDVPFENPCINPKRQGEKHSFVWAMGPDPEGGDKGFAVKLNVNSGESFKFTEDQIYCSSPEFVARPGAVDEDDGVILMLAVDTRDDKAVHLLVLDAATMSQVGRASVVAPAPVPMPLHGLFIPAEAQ
Assay: beta-carotene degradation and decolorization in beta-carotene-accumulating E. coli
Format: cell-based
Settings: co-expression with pAC-BETAipi; […] IPTG induction; GST-fusion vector; products not identified

## CC1=C(/C=C/C(C)=C/C=C/C(C)=C/C=C/C=C(C)/C=C/C=C(C)/C=C/C2=C(C)CCCC2(C)C)C(C)(C)CCC1 [β-carotene]
  beta-carotene degradation and decolorization in beta-carotene-accumulating E. co: evident decolorization was observed in the β-carotene-accumulated bacteria expressing EsNinaBl
